Among the data in patent US10787434B2, “Benzopiperdine derivatives and their use in the treatment of cancer and hemoglobinopathies” (CTXT PTY LTD, priority 2016, dated 2020) are IC50 values, retold here.

In test [1] the test system is symmetrical dimethylation of arginine (Di-Methyl Histone H4 Arginine 3) in cell line TE11. Kind of test: PRMT5 Biomarker Assay. Type of test: cell-based. Particulars: Homo sapiens, TE-11; TE11 cells, 72 hours incubation, mean Alexa647-related intensity per cell. The protocol: PRMT5 Biomarker Assay Compounds of the invention may be tested for potency to inhibit symmetrical dimethylation of arginine in the following assay: The cell line TE11 was seeded at a density of 6,000 cells per well in 96 well optical quality tissue culture plates in DME medium and 10% foetal bovine serum, and allowed to adhere for 5 hours under standard culture conditions (37 degree Celsius, 5% CO2). Compound dilutions prepared in DMSO were added to the medium, with negative control wells reserved for treatment with DMSO only and maximum inhibition controls receiving a potent PRMT5 inhibitor compound at 1 μM concentration. After incubation for 72 hours, the cells were fixed with 3.7% formaldehyde in PBS for 30 minutes at room temperature, washed with phosphate buffer saline and blocked with Odyssey blocking buffer (LI-COR, Lincoln, Nebr.). Rabbit anti-Di-Methyl Histone H4 Arginine 3 specific antibody (Epigentek) in Odyssey blocking buffer was added and incubated for 14 hours at 4 degree Celsius. After washing, anti-rabbit secondary antibody labelled with Alexa647 dye (LifeTechnologies) and Hoechst 33342 (1 μg/mL, SigmaAldrich) were added for 1 hour incubation. Plates were washed and read on a PerkinElmer Envision 2103 in fluorescence intensity scanning mode (24 scans across the well area). The plates were imaged on a PerkinElmer Phenix high content imaging platform. Using a Columbus image analysis pipeline, individual nuclei were located by Hoechst 33342 stain and the methylation level was calculated from the Alexa647-related intensity in the same area. IC50 values were obtained from the mean Alexa647-related intensity per cell by calculating percent inhibition (%1) for each well relative to controls on the same plate (% l=(1-CN)/(CP−CN) where CN/CP are the averages of the negative/maximum inhibition controls, respectively), then fitting the %1 data vs. compound concentration [I] to % I=(A+((B−A)/(1+((C/[I])^D)))) where A is the lower asymptote, B is the upper asymptote, C is the IC50 value, and D is the slope.

Test [2] addresses Full-length PRMT5 enzyme co-expressed with His6-MEP50 (Homo sapiens (Human), UniProt O14744). Kind of test: PRMT5 Biochemical Assay. Particulars: Transcreener EPIGEN methyltransferase assay, histone H4 derived peptide substrate, 4 hours at 37 degree Celsius. The protocol:
Compounds of the invention may be tested for in vitro activity in the following assay:
A histone H4 derived peptide is used as substrate (amino acid sequence: […]NH2). Full-length PRMT5 enzyme (NCBI Reference sequence NP_006100.2) was co-expressed with His6-MEP50 in insect cells and purified via Nickel immobilized metal affinity and gel filtration chromatography (“the enzyme”).
The 6 μL reactions are run in Greiner brand black 384-well low volume assay plates. All reactions contained assay buffer (phosphate buffered saline, 0.01% (v/v) Tween-20, 0.01% (w/v) albumin from chicken egg white, 1 mM Dithiothreitol, 1 μM peptide substrate, 1 μM S-Adenosyl methionine, and 15 ng/reaction enzyme, with the enzyme being omitted from negative control reactions. Compounds were added in a volume of 100 nL from dilution series prepared in DMSO, positive and negative control reactions receiving the same volume DMSO without compound. The plates were sealed with adhesive seals and incubated for 4 hours at 37 degree Celsius. Reaction progress was measured using the Transcreener™ EPIGEN methyltransferase assay (BellBrook Labs, Madison, Wis.) as recommended by the manufacturer. To each reaction 2 μL detection mix were added, containing coupling enzymes, fluorescence polarisation tracer, and AMP antibody. Plates were incubated for 90 minutes before being read on a PerkinElmer EnVision™ plate reader in fluorescence polarisation mode. IC50 values were obtained from the raw readings by calculating percent inhibition (%1) for each reaction relative to controls on the same plate (% I=(I−CN)/(CP−CN) where CN/CP are the averages of the negative/positive reactions, respectively), then fitting the %1 data vs. compound concentration [I] to % I=(A+((B−A)/(1+((C/[I])^D)))) where A is the lower asymptote, B is the upper asymptote, C is the IC50 value, and D is the slope.

Structures can show the parent of a compound that is named as a salt.

Chain of Full-length PRMT5 enzyme co-expressed with His6-MEP50 (O14744 whole entry): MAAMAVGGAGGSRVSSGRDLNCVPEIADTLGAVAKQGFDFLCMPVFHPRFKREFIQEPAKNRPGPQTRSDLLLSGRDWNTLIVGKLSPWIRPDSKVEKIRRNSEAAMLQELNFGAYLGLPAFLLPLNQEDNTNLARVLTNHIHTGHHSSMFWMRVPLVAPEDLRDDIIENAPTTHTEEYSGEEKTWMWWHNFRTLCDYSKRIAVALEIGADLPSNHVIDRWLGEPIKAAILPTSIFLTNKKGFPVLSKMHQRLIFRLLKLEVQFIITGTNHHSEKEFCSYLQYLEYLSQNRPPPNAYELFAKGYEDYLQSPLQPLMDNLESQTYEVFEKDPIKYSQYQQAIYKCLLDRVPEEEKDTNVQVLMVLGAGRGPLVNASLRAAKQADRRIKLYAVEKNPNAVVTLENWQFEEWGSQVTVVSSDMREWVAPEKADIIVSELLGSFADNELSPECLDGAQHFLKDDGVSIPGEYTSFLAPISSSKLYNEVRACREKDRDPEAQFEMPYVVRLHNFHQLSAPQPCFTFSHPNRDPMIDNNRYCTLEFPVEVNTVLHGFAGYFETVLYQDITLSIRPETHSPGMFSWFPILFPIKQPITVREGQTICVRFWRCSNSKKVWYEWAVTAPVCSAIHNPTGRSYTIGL
Chain of Full-length PRMT5 enzyme co-expressed with His6-MEP50 (Q9BQA1 whole entry partner): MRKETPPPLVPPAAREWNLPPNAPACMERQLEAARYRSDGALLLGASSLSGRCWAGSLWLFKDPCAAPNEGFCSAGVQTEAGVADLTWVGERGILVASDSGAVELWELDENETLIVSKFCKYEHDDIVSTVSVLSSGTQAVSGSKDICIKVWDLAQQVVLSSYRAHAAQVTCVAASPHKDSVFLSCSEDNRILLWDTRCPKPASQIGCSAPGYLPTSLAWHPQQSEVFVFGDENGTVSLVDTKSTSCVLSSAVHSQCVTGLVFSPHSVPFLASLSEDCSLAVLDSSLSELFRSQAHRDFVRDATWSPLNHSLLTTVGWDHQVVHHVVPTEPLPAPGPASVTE

As usually defined, the IC50 is the point on the concentration scale where inhibition reaches its midpoint. `CCOc1c(C(=O)NC[C@@H](O)[C@@H]2Cc3ccccc3CN2)ccnc1NC1CCN(C(C)=O)CC1` [Example 8, 2-((1-Acetylpiperidin-4-yl)amino)-3-ethoxy-N—((R)-2-hydroxy-2-((S)-1,2,3,4-tetrahydroisoquinolin-3-yl)ethyl)isonicotinamide Dihydrochloride Salt]: the IC50 in test [1] is 112 nM; in test [2], 135 nM.
As to `CCOc1nc(N2CCC(O)CC2)ccc1C(=O)NC[C@@H](O)[C@@H]1Cc2ccccc2CN1` [Example 2, 2-Ethoxy-N-((R)-2-hydroxy-2-((S)-1,2,3,4-tetrahydroisoquinolin-3-yl)ethyl)-6-(4-hydroxypiperidin-1-yl)nicotinamide dihydrochloride], the IC50 in test [1] was found to be 23.3 nM; in test [2], 102 nM.
Regarding `CC(=O)N1CCC(Oc2nccc(C(=O)NC[C@@H](O)[C@@H]3Cc4ccccc4CN3)c2Cl)CC1` [Example 5, 2-((1-Acetylpiperidin-4-yl)oxy)-3-chloro-N-((R)-2-hydroxy-2-((S)-1,2,3,4-tetrahydroisoquinolin-3-yl)ethyl)isonicotinamide dihydrochloride], the IC50 in test [1] is 6 nM; in test [2], 26 nM.
In the case of `CCOc1nc(N2CCN(C(=O)OC)CC2)ccc1C(=O)NC[C@@H](O)[C@@H]1Cc2ccccc2CN1` [Example 1, Methyl 4-(6-ethoxy-5-(((R)-2-hydroxy-2-((S)-1,2,3,4-tetrahydroisoquinolin-3-yl)ethyl)carbamoyl)pyridin-2-yl)piperazine-1-carboxylate dihydrochloride], the figures for the IC50 in test [1] and in test [2] were 0.2 nM and 37 nM, respectively.
For `CCOc1cnc(CC2CCN(C(C)=O)CC2)cc1C(=O)NC[C@@H](O)[C@@H]1Cc2ccccc2CN1` [Example 6, 2-((1-acetylpiperidin-4-yl)methyl)-5-ethoxy-N-((R)-2-hydroxy-2-((S)-1,2,3,4-tetrahydroisoquinolin-3-yl)ethyl)isonicotinamide dihydrochloride], the IC50 was 75.4 nM in test [1] and 202 nM in test [2].
Turning to `CCOc1nc(N2CCOCC2)ccc1C(=O)NC[C@@H](O)[C@@H]1Cc2ccccc2CN1` [Example 9, 2-Ethoxy-N—((R)-2-hydroxy-2-((S)-1,2,3,4-tetrahydroisoquinolin-3-yl)ethyl)-6-morpholinonicotinamide], the IC50 worked out at 31.5 nM in test [1] and 251 nM in test [2].
The corresponding values for `CCOc1nc(N2CCCOCC2)ccc1C(=O)NC[C@@H](O)[C@@H]1Cc2ccccc2CN1` [Example 3, 2-Ethoxy-N-((R)-2-hydroxy-2-((S)-1,2,3,4-tetrahydroisoquinolin-3-yl)ethyl)-6-(1,4-oxazepan-4-yl)nicotinamide dihydrochloride] are 5.6 nM and 70 nM.
For `CCOc1nc(N2CCN(C(C)=O)CC2)ccc1C(=O)NC[C@@H](O)[C@@H]1Cc2ccccc2CN1` [Example 4, 6-(4-Acetylpiperazin-1-yl)-2-ethoxy-N-((R)-2-hydroxy-2-((S)-1,2,3,4-tetrahydroisoquinolin-3-yl)ethyl)nicotinamide dihydrochloride], the results for the IC50 in test [1] and in test [2] were 1.3 nM and 26 nM, respectively.
On to `CCOc1nc(OC2CCN(C(C)=O)CC2)ccc1C(=O)NC[C@@H](O)[C@@H]1Cc2ccccc2CN1` [Example 7, 6-((1-acetylpiperidin-4-yl)oxy)-2-ethoxy-N-((R)-2-hydroxy-2-((S)-1,2,3,4-tetrahydroisoquinolin-3-yl)ethyl)nicotinamide hydrochloride salt], for which the IC50 in test [1] was 16.5 nM; in test [2], 135 nM.
